Measured values taken from ChEMBL document CHEMBL1201862, “PubChem BioAssay data set” (2004).
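Interpolation was linear, between the two tested concentrations surrounding the appropriate level; five concentrations were tested over 48 hours in 96-well plates. GI50: concentration for 50% inhibition of growth.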 Calls of active or inactive are those of the source. No stated cut-off is given here; in the data, active = GI50 up to about 1.1 µM and inactive = higher.

Assays:
Test in all cases: DTP human tumour cell line panel, 48 h
RPMI-8226 = test system: RPMI-8226
SK-MEL-2 = test system: SK-MEL-2
HOP-62 = test system: HOP-62
SR = test system: SR
HL-60 = test system: HL-60
MDA-MB-435 = test system: MDA-MB-435
Malme-3M = test system: Malme-3M
KM12 = test system: KM12
SK-OV-3 = test system: SK-OV-3
A498 = test system: A498
SF-268 = test system: SF-268
T47D = test system: T47D
NCI-H522 = test system: NCI-H522
SN12C = test system: SN12C
IGROV-1 = test system: IGROV-1
ACHN = test system: ACHN
A549 = test system: A549
OVCAR-5 = test system: OVCAR-5
OVCAR-3 = test system: OVCAR-3
OVCAR-8 = test system: OVCAR-8

Row | SMILES | GI50 (RPMI-8226) | GI50 (SK-MEL-2) | GI50 (HOP-62) | GI50 (SR) | GI50 (HL-60) | GI50 (MDA-MB-435) | GI50 (Malme-3M) | GI50 (KM12) | GI50 (SK-OV-3) | GI50 (A498) | GI50 (SF-268) | GI50 (T47D) | GI50 (NCI-H522) | GI50 (SN12C) | GI50 (IGROV-1) | GI50 (ACHN) | GI50 (A549) | GI50 (OVCAR-5) | GI50 (OVCAR-3) | GI50 (OVCAR-8)
1 | CCOC(=O)c1cc2c(OC(C)=O)ccc(OC(C)=O)c2s1 | 2.31 µM (inactive) | 2.62 µM (inactive) | 10.3 µM (inactive) | 3.27 µM (inactive) | 0.845 µM (active) | 2.67 µM (inactive) | 1.93 µM (inactive) | 4.52 µM (inactive) | 9.4 µM (inactive) | 5.28 µM (inactive) | 1.79 µM (inactive) | 1.48 µM (inactive) | 0.301 µM (active) | 2.25 µM (inactive) | 1.76 µM (inactive) | 1.61 µM (inactive) | 10.7 µM (inactive) | 6.19 µM (inactive) | 1.61 µM (inactive) | 1.66 µM (inactive)
2 | COc1ccc(CNc2nc(NCc3ccc(OC)cc3)nc(NC3CCCCC3)n2)cc1 | 3.21 µM (inactive) | 2.81 µM (inactive) | 5.5 µM (inactive) | 3.29 µM (inactive) | 4.34 µM (inactive) | 0.472 µM (active) | 0.225 µM (active) | 1.5 µM (inactive) | 3.87 µM (inactive) | 48.6 µM (inactive) | 2.24 µM (inactive) | 3.51 µM (inactive) | 1.21 µM (inactive) | 3.07 µM (inactive) | 2.09 µM (inactive) | 5.11 µM (inactive) | 2 µM (inactive) | 4.99 µM (inactive) | 2.2 µM (inactive) | 2.6 µM (inactive)
3 | O=C1OC(C2Cc3ccc4c(c3C2=O)CCC4)c2ccccc21 (stereo not given) | 25.3 µM (inactive) | 64.9 µM (inactive) | > 100 µM (inactive) | 38.8 µM (inactive) | 27.4 µM (inactive) | 40.5 µM (inactive) | 94.4 µM (inactive) | 29.7 µM (inactive) | > 100 µM (inactive) | 60.5 µM (inactive) | 42.9 µM (inactive) | 54.6 µM (inactive) | > 100 µM (inactive) | 36 µM (inactive) | 82.4 µM (inactive) | 38.2 µM (inactive) | 50 µM (inactive) | 85.9 µM (inactive) | 28.4 µM (inactive) | 56.9 µM (inactive)
4 | NC(=O)NOCC1NC(=O)NC1=O (stereo not given) | > 100 µM (inactive) | > 100 µM (inactive) | > 100 µM (inactive) | > 100 µM (inactive) | 19.3 µM (inactive) | > 100 µM (inactive) | > 100 µM (inactive) | > 100 µM (inactive) | > 100 µM (inactive) | > 100 µM (inactive) | > 100 µM (inactive) | > 100 µM (inactive) | > 100 µM (inactive) | > 100 µM (inactive) | > 100 µM (inactive) | > 100 µM (inactive) | > 100 µM (inactive) | > 100 µM (inactive) | > 100 µM (inactive) | > 100 µM (inactive)
5 | COC(=O)[C@@H]1C=C[C@H](OC2OC(COC(C)=O)C(OC(C)=O)C(OC(C)=O)C2OC(C)=O)n2c(=O)c3ccccc3c(=O)n21 (stereo not given in full) | 4.66 µM (inactive) | 9.16 µM (inactive) | 17.9 µM (inactive) | 4.82 µM (inactive) | 3.95 µM (inactive) | 9.16 µM (inactive) | 16.9 µM (inactive) | 10.7 µM (inactive) | 14.6 µM (inactive) | 12.2 µM (inactive) | > 10 µM (inactive) | 4.7 µM (inactive) | 1.68 µM (inactive) | > 10 µM (inactive) | 18.2 µM (inactive) | 11.7 µM (inactive) | 21.4 µM (inactive) | 16 µM (inactive) | 10.4 µM (inactive) | 16.5 µM (inactive)
6 | O=C1Cc2c(-c3ccccc3)cc(-c3ccc(Cl)cc3)nc2-c2ccccc2N1 | 8.47 µM (inactive) | 17.1 µM (inactive) | 3.66 µM (inactive) | 10 µM (inactive) | 14.5 µM (inactive) | 8.99 µM (inactive) | 5.02 µM (inactive) | 7.89 µM (inactive) | 2.39 µM (inactive) | 1.75 µM (inactive) | 4.85 µM (inactive) | 3.23 µM (inactive) | 2.18 µM (inactive) | 3.33 µM (inactive) | 4.62 µM (inactive) | 2.4 µM (inactive) | 9.35 µM (inactive) | 11 µM (inactive) | 8.73 µM (inactive) | 2.37 µM (inactive)
7 | C/C(=N\NC(=[Se])N(C)C)c1ccccn1 | < 0.01 µM (active) | 0.585 µM (active) | < 0.01 µM (active) | < 0.01 µM (active) | < 0.01 µM (active) | 1.11 µM (active) | 0.47 µM (active) | 0.0234 µM (active) | 0.0216 µM (active) | 0.4 µM (active) | 0.216 µM (active) | 0.0364 µM (active) | 0.0497 µM (active) | 0.0143 µM (active) | < 0.01 µM (active) | < 0.01 µM (active) | 0.02 µM (active) | 0.103 µM (active) | 0.106 µM (active) | < 0.01 µM (active)
8 | CN(C)c1ccc(C(Cc2ccccc2)C2NC(=S)NC2=O)cc1 (stereo not given) | 97.7 µM (inactive) | > 100 µM (inactive) | > 100 µM (inactive) | 2.17 µM (inactive) | 29.1 µM (inactive) | > 75.7 µM (inactive) | > 74.8 µM (inactive) | > 100 µM (inactive) | 76.9 µM (inactive) | > 100 µM (inactive) | > 100 µM (inactive) | > 100 µM (inactive) | > 100 µM (inactive) | > 100 µM (inactive) | > 100 µM (inactive) | > 100 µM (inactive) | > 100 µM (inactive) | > 100 µM (inactive) | > 100 µM (inactive) | > 100 µM (inactive)
9 | CCN(CC)CCCC(C)Nc1ccnc2cc(Cl)ccc12 (stereo not given) [CHLOROQUINE PHOSPHATE] | 19.5 µM (inactive) | 10 µM (inactive) | 34.4 µM (inactive) | 13.6 µM (inactive) | 13.3 µM (inactive) | 16.4 µM (inactive) | 20.9 µM (inactive) | 31.8 µM (inactive) | > 76.7 µM (inactive) | 24.3 µM (inactive) | 60.7 µM (inactive) | 28.1 µM (inactive) | 25.8 µM (inactive) | 34.9 µM (inactive) | 24.5 µM (inactive) | > 85.1 µM (inactive) | 39.5 µM (inactive) | 25.1 µM (inactive) | 97.1 µM (inactive) | 33.4 µM (inactive)
10 | COc1ccc(/C=C2\C[C@H]3[C@@H]4CC=C5C[C@@H](OC(C)=O)CC[C@]5(C)[C@H]4CC[C@]3(C)\C2=N\O)cc1OC | 4.86 µM (inactive) | 20.8 µM (inactive) | 31.7 µM (inactive) | 9.33 µM (inactive) | 5.57 µM (inactive) | 20.7 µM (inactive) | 53 µM (inactive) | 9.27 µM (inactive) | 68.1 µM (inactive) | 19.3 µM (inactive) | > 100 µM (inactive) | 5.38 µM (inactive) | 21.6 µM (inactive) | 15.4 µM (inactive) | 53.3 µM (inactive) | 8 µM (inactive) | 5.12 µM (inactive) | 33.9 µM (inactive) | 24.3 µM (inactive) | 5.71 µM (inactive)
11 | CC(=O)Nc1nnc(S(=O)(=O)NC(=S)Nc2ccc(Cl)cc2)s1 | > 100 µM (inactive) | > 100 µM (inactive) | > 100 µM (inactive) | > 100 µM (inactive) | > 100 µM (inactive) | > 100 µM (inactive) | > 100 µM (inactive) | > 100 µM (inactive) | > 100 µM (inactive) | > 100 µM (inactive) | > 100 µM (inactive) | > 100 µM (inactive) | > 100 µM (inactive) | > 100 µM (inactive) | > 100 µM (inactive) | > 100 µM (inactive) | > 100 µM (inactive) | > 100 µM (inactive) | > 100 µM (inactive) | > 100 µM (inactive)
